Reference: ChEMBL document CHEMBL4819081 (Eur J Med Chem, 2021)

Experiments:
[1] = target: T1, CDK6/cyclin D3 (Homo sapiens) (UniProt P30281+Q00534); assay: Inhibition of CDK6/Cyclin D3 (unknown origin) at 200 nM using ATP by mobility shift assay; type: protein-complex assay
NCI-H1299 = assay: Antiproliferative activity against human NCI-H1299 cells assessed as reduction in cell viability after 72 hrs by MTT assay; type: functional, cell-based; conditions: NCI-H1299, 72 h
[2] = target: T1, CDK6/cyclin D3 (Homo sapiens); assay: Inhibition of CDK6/Cyclin D3 (unknown origin) at 20 nM using ATP by mobility shift assay; type: protein-complex assay
MDA-MB-231 = assay: Antiproliferative activity against human MDA-MB-231 cells assessed as reduction in cell viability after 72 hrs by MTT assay; type: functional, cell-based; conditions: MDA-MB-231, 72 h
MCF7 = assay: Antiproliferative activity against human MCF7 cells assessed as reduction in cell viability after 72 hrs by MTT assay; type: functional, cell-based; conditions: MCF7, 72 h
[3] = target: T2, Cyclin-dependent kinase 4/cyclin D1 (Homo sapiens) (UniProt P11802+P24385); assay: Inhibition of CDK4/Cyclin D1 (unknown origin) at 200 nM using ATP by mobility shift assay; type: protein-complex assay
[4] = target: T2, Cyclin-dependent kinase 4/cyclin D1 (Homo sapiens); assay: Inhibition of CDK4/Cyclin D1 (unknown origin) at 20 nM using ATP by mobility shift assay; type: protein-complex assay
MDA-MB-453 = assay: Antiproliferative activity against human MDA-MB-453 cells assessed as reduction in cell viability after 72 hrs by MTT assay; type: functional, cell-based; conditions: MDA-MB-453, 72 h

Structure (SMILES) | inhibition [1] [%] | IC50 (NCI-H1299) [µM] | inhibition [2] [%] | IC50 (MDA-MB-231) [µM] | IC50 (MCF7) [µM] | inhibition [3] [%] | inhibition [4] [%] | IC50 (MDA-MB-453) [µM]
CC(=O)c1c(C)c2cnc(Nc3ccc(N4CCN(CC(=O)NCCCNC(=O)CCl)CC4)cn3)nc2n(C2CCCC2)c1=O | 101 | 7.41 | 92.1 | 7.8 | 5.22 | 91.7 | 56.9 | 1.92
C=CC(=O)NCCCCCCNC(=O)CN1CCN(c2ccc(Nc3ncc4c(C)c(C(C)=O)c(=O)n(C5CCCC5)c4n3)nc2)CC1 | – | > 20 | – | 14.8 | > 20 | – | – | > 20
CC(=O)c1c(C)c2cnc(Nc3ccc(N4CCN(CCC(=O)NCCCCCCNCC#N)CC4)cn3)nc2n(C2CCCC2)c1=O | – | > 20 | – | > 20 | > 20 | – | – | > 20
CC(=O)c1c(C)c2cnc(Nc3ccc(N4CCN(CC#N)CC4)cn3)nc2n(C2CCCC2)c1=O | – | > 20 | – | 17.9 | > 20 | – | – | > 20
CC(=O)c1c(C)c2cnc(Nc3ccc(N4CCN(CC(=O)NCCCCCCNCC#N)CC4)cn3)nc2n(C2CCCC2)c1=O | – | > 20 | – | > 20 | > 20 | – | – | > 20
CC(=O)c1c(C)c2cnc(Nc3ccc(N4CCN(CC(=O)NCCOCCOCCNC(=O)CCl)CC4)cn3)nc2n(C2CCCC2)c1=O | – | > 20 | – | > 20 | > 20 | – | – | > 20
CC(=O)c1c(C)c2cnc(Nc3ccc(N4CCN(CCC(=O)NCCOCCNC(=O)CCl)CC4)cn3)nc2n(C2CCCC2)c1=O | 103 | > 20 | 91.2 | > 20 | 11.5 | 94.4 | 60.5 | 6.11
CC(=O)c1c(C)c2cnc(Nc3ccc(N4CCN(CCC(=O)NCCOCCNCC#N)CC4)cn3)nc2n(C2CCCC2)c1=O | – | > 20 | – | > 20 | > 20 | – | – | > 20
CC(=O)c1c(C)c2cnc(Nc3ccc(N4CCN(CCC(=O)NCCOCCOCCNC(=O)CCl)CC4)cn3)nc2n(C2CCCC2)c1=O | – | > 20 | – | 8.92 | 15.8 | – | – | 9.2
C=CC(=O)NCCOCCNC(=O)CCN1CCN(c2ccc(Nc3ncc4c(C)c(C(C)=O)c(=O)n(C5CCCC5)c4n3)nc2)CC1 | – | > 20 | – | > 20 | > 20 | – | – | 5.25
CC(=O)c1c(C)c2cnc(Nc3ccc(N4CCN(CC(=O)NCCNC(=O)CCl)CC4)cn3)nc2n(C2CCCC2)c1=O | 104 | > 20 | 81.6 | 10.2 | 2.39 | 93.4 | 60.8 | 7.6
CC(=O)c1c(C)c2cnc(Nc3ccc(N4CCN(CCC(=O)NCCCNCC#N)CC4)cn3)nc2n(C2CCCC2)c1=O | – | > 20 | – | > 20 | > 20 | – | – | > 20
C=CC(=O)NCCOCCOCCNC(=O)CN1CCN(c2ccc(Nc3ncc4c(C)c(C(C)=O)c(=O)n(C5CCCC5)c4n3)nc2)CC1 | – | > 20 | – | > 20 | > 20 | – | – | 10.2
CC(=O)c1c(C)c2cnc(Nc3ccc(N4CCN(CC(=O)NCCOCCOCCNCC#N)CC4)cn3)nc2n(C2CCCC2)c1=O | – | > 20 | – | > 20 | > 20 | – | – | > 20
CC(=O)c1c(C)c2cnc(Nc3ccc(N4CCN(CCC(=O)NCCOCCOCCNCC#N)CC4)cn3)nc2n(C2CCCC2)c1=O | – | > 20 | – | > 20 | > 20 | – | – | > 20
C=CC(=O)NCCCNC(=O)CCN1CCN(c2ccc(Nc3ncc4c(C)c(C(C)=O)c(=O)n(C5CCCC5)c4n3)nc2)CC1 | – | > 20 | – | 18.3 | > 20 | – | – | > 20
CC(=O)c1c(C)c2cnc(Nc3ccc(N4CCN(CCC(=O)NCCCNC(=O)CCl)CC4)cn3)nc2n(C2CCCC2)c1=O | 96.4 | 7.41 | 79 | 9.67 | 5.48 | 93.1 | 65.5 | 1.96
CC(=O)c1c(C)c2cnc(Nc3ccc(N4CCN(CC(=O)NCCCCNC(=O)CCl)CC4)cn3)nc2n(C2CCCC2)c1=O | 104 | > 20 | 82.9 | 8.32 | 12.4 | 94.8 | 63 | 8.93
CC(=O)c1c(C)c2cnc(Nc3ccc(N4CCN(CCC(=O)NCCCCNC(=O)CCl)CC4)cn3)nc2n(C2CCCC2)c1=O | 100 | > 20 | 89.2 | > 20 | 16.6 | 92 | 52.1 | 7.01
CC(=O)c1c(C)c2cnc(Nc3ccc(N4CCN(CCC(=O)NCCNC(=O)CCl)CC4)cn3)nc2n(C2CCCC2)c1=O | – | > 20 | – | > 20 | > 20 | – | – | > 20

Structure (SMILES) | inhibition [1] [%] | IC50 (NCI-H1299) [µM] | inhibition [2] [%] | IC50 (MDA-MB-231) [µM] | IC50 (MCF7) [µM] | inhibition [3] [%] | inhibition [4] [%] | IC50 (MDA-MB-453) [µM]
CC(=O)c1c(C)c2cnc(Nc3ccc(N4CCN(CC(=O)NCCNCC#N)CC4)cn3)nc2n(C2CCCC2)c1=O | – | > 20 | – | > 20 | > 20 | – | – | 9.89
C=CC(=O)NCCOCCOCCNC(=O)CCN1CCN(c2ccc(Nc3ncc4c(C)c(C(C)=O)c(=O)n(C5CCCC5)c4n3)nc2)CC1 | – | > 20 | – | > 20 | > 20 | – | – | 8.19
CC(=O)c1c(C)c2cnc(Nc3ccc(N4CCN(CCC(=O)NCCCCCCNC(=O)CCl)CC4)cn3)nc2n(C2CCCC2)c1=O | – | > 20 | – | > 20 | > 20 | – | – | > 20
C=CC(=O)NCCCCNC(=O)CCN1CCN(c2ccc(Nc3ncc4c(C)c(C(C)=O)c(=O)n(C5CCCC5)c4n3)nc2)CC1 | – | > 20 | – | > 20 | > 20 | – | – | > 20
C=CC(=O)NCCOCCNC(=O)CN1CCN(c2ccc(Nc3ncc4c(C)c(C(C)=O)c(=O)n(C5CCCC5)c4n3)nc2)CC1 | – | > 20 | – | > 20 | > 20 | – | – | 15.4
CC(=O)c1c(C)c2cnc(Nc3ccc(N4CCN(C(C)=O)CC4)cn3)nc2n(C2CCCC2)c1=O | 100 | > 50 | 68.5 | > 50 | > 50 | 87.8 | 43.2 | > 50
C=CC(=O)NCCCCNC(=O)CN1CCN(c2ccc(Nc3ncc4c(C)c(C(C)=O)c(=O)n(C5CCCC5)c4n3)nc2)CC1 | – | > 20 | – | > 20 | > 20 | – | – | > 20
C=CC(=O)NCCCCCCNC(=O)CCN1CCN(c2ccc(Nc3ncc4c(C)c(C(C)=O)c(=O)n(C5CCCC5)c4n3)nc2)CC1 | – | > 20 | – | > 20 | > 20 | – | – | > 20
CC(=O)c1c(C)c2cnc(Nc3ccc(N4CCN(CC(=O)NCCCCCCNC(=O)CCl)CC4)cn3)nc2n(C2CCCC2)c1=O | 98.2 | 8.88 | 71.3 | 9.89 | 14.5 | 90.9 | 45.7 | 5.11
C=CC(=O)N1CCN(c2ccc(Nc3ncc4c(C)c(C(C)=O)c(=O)n(C5CCCC5)c4n3)nc2)CC1 | – | 8.5 | – | > 20 | > 20 | – | – | 6.96
CC(=O)c1c(C)c2cnc(Nc3ccc(N4CCN(CC(=O)NCCCNCC#N)CC4)cn3)nc2n(C2CCCC2)c1=O | – | 19.2 | – | > 20 | > 20 | – | – | 15.5
CCC(=O)N1CCN(c2ccc(Nc3ncc4c(C)c(C(C)=O)c(=O)n(C5CCCC5)c4n3)nc2)CC1 | 103 | > 50 | 69.8 | 142 | 25.7 | 91.4 | 43 | 71.5
CC(=O)c1c(C)c2cnc(Nc3ccc(N4CCN(CCC(=O)NCCNCC#N)CC4)cn3)nc2n(C2CCCC2)c1=O | – | > 20 | – | > 20 | > 20 | – | – | > 20
C=CC(=O)NCCNC(=O)CCN1CCN(c2ccc(Nc3ncc4c(C)c(C(C)=O)c(=O)n(C5CCCC5)c4n3)nc2)CC1 | – | > 20 | – | > 20 | > 20 | – | – | > 20
C=CC(=O)NCCNC(=O)CN1CCN(c2ccc(Nc3ncc4c(C)c(C(C)=O)c(=O)n(C5CCCC5)c4n3)nc2)CC1 | – | > 20 | – | 18.7 | > 20 | – | – | > 20
C=CC(=O)NCCCNC(=O)CN1CCN(c2ccc(Nc3ncc4c(C)c(C(C)=O)c(=O)n(C5CCCC5)c4n3)nc2)CC1 | – | > 20 | – | 18 | > 20 | – | – | > 20
CC(=O)c1c(C)c2cnc(Nc3ccc(N4CCN(CC(=O)NCCOCCNCC#N)CC4)cn3)nc2n(C2CCCC2)c1=O | – | > 20 | – | > 20 | > 20 | – | – | > 20
CC(=O)c1c(C)c2cnc(Nc3ccc(N4CCN(CC(=O)NCCCCNCC#N)CC4)cn3)nc2n(C2CCCC2)c1=O | – | > 20 | – | > 20 | > 20 | – | – | > 20
CC(=O)c1c(C)c2cnc(Nc3ccc(N4CCN(CCC(=O)NCCCCNCC#N)CC4)cn3)nc2n(C2CCCC2)c1=O | – | 8.42 | – | 12.5 | > 20 | – | – | 12.8
